According to patent US6531512B1, “Method of treating cancer in patients having a deficiency in p53 tumor suppressor gene” (Health Research Inc., priority 1998, dated 2003):

Assays:
[1] = test system: ornithine decarboxylate (ODC); assay: Polyamine enzyme activity in treated melanoma cells: ODC; format: cell-based, human; details: for Enzyme Activities, ODC: SK-MEL-28 cells, 24 hours, Table 4
Protocol: (§1) MALME-3M human melanoma cells were cultured as described in Example 1 and treated with 10 μM DENSPM or 10 μM spermine (SPM) as described in Example 4. SK-MEL-28 cells were also cultured as described in Example 1 and treated with 10 μM DENSPM as describe in Example 4. Untreated cells were used as a control.
(§2) After treatment with DENSPM or spermine, biochemical parameters including polyamine enzymes activity, polyamine pools and analog accumulation were monitored as described by Kramer et al, J. Biol. Chem., 270:2124-32 (1995) and Kramer et al., Cancer Res., 57:5521-5527 (1997). Polyamine enzyme activity was monitored for ornithine […] (ODC); S-adenosylmethionine decarboxylase (SAMDC); and spermidine/spermine N^1-acetyltransferase (SSAT). Polyamine pools was monitored for putrescine (Put); spermidine (Spd); and spermine (Spm).
(§3) Enzyme activity and polyamine pools were measured as described in Example 5.

[2] = test system: SK-MEL-28 human melanoma cells; assay: Polyamine pools and analog accumulation in SK-MEL-28 cells; format: cell-based; details: SK-MEL-28 cells, 24 hours; for Analog (intracellular accumulation) / Polyamine Pools, Put / Polyamine Pools, Spd / Polyamine Pools, Spm: Table 4
Protocol: as §1, §2, §3

[3] = test system: spermidine/spermine N^1-acetyltransferase (SSAT); assay: Polyamine enzyme activity in treated melanoma cells: SSAT induction; format: cell-based, human; details: for Enzyme Activities, SSAT: Table 4
Protocol: as §1, §2, §3

[4] = test system: SK-MEL-28 human melanoma cells; assay: Cell growth / apoptotic response of SK-MEL-28 cells (Coulter Counter, growth kinetics); format: cell-based; details: SK-MEL-28 cells; for % Control Growth: 24 hours, Table 4; for cell growth and/or apoptosis response: growth kinetic analysis
Protocol: (§4) MALME-3M human melanoma cells containing wt-p53 (American Tissue Type Culture Collection, Bethesda, Md.) and human SK-MEL-28 cells containing mt-p53 (American Tissue Type Culture Collection, Bethesda, Md.) were cultured as a monolayer in RPMI 1640 medium containing 10% Nu-Serum (Collaborative Research Products, Bedford, Mass.), 1 mM aminoguanidine, penicillin (50 units/ml) and streptomycin (50 μg/ml) as described by Kramer et al, J. Biol. Chem., 270:2124-32 (1995) and Kramer et al., Cancer Res., 57:5521-5527 (1997).
(§5) MALME-3M cells were cultured as described in Example 1. The cells were seeded by adding 1×10^5 cells to a T-25 vented cell culture flask. After 24 hours, the asynchronous cell cultures were treated with 10 μM N^1, N^11-diethylnorspermine (DENSPM) prepared by dissolving DENSPM in distilled water and sterilizing the solution by filtration through a 0.22 micron Millipore membrane. The cells were treated by continuous exposure to DENSPM for 6 days (i.e., the polyamine was added to the cell culture at T=0 and the culture was incubated for the desired amount of time). The number of viable MALME-3M cells were monitored electronically using a Model ZM Coulter Counter (Coulter Electronics, Hialeah, Fla.). Untreated MALME-3M cell cultures were used as controls.
(§6) MALME-3M human melanoma cells were cultured as described in Example 1 and treated continuously with 10 μM DENSPM or 10 μM spermine (SPM) for 48 hours. SK-MEL-28 cells were also cultured as described in Example 1 and treated with 10 μM DENSPM for 24 hours. Untreated cells were used as a control.
The effect of DENSPM and spermine on cell growth was monitored using a Coulter Counter (see Example 2). The effect on cell cycle was monitored by flow cytometry as described in Example 3. […]

[5] = test system: MALME-3M human melanoma cells; assay: Cell growth of MALME-3M cells (Coulter Counter); format: cell-based; details: 10 μM
Protocol: as §4, §5, §6
(§7) The effect of DENSPM and spermine on cell growth was monitored using a Coulter Counter (see Example 2). The effect on cell cycle was monitored by flow cytometry as described in Example 3.

[6] = test system: S-adenosylmethionine decarboxylase (SAMDC); assay: Polyamine enzyme activity in treated melanoma cells: SAMDC; format: cell-based, human; details: MALME-3M (wt-p53), 10 μM, Table 2 (24 hours treatment)
Protocol: as §1, §2

[7] = test system: MALME-3M human melanoma cells; assay: Cell cycle distribution of MALME-3M cells by flow cytometry; format: cell-based; details: MALME-3M (wt-p53), asynchronous, 10 μM, 48 hours
Protocol: MALME-3M cells were cultured as described in Example 1 and treated with 10 μM DENSPM as described in Example 2. Cell cycle arrest was monitored using a FACScan flow cytometry unit (Becton Dickinson, San Jose, Calif.) according to the method of Krishan (1975) J. Cell Biol. 66:[…]. Untreated MALME-3M cell cultures were used as controls.
Cell cycle arrest of serum synchronized MALME-3M cells was also monitored using flow cytometry. MALME-3M cells were synchronized in G0/G1 by replacing cell culture media containing 10% NuSerum (see Example 1) with media lacking NuSerum and incubating the cultures for 120 hours. The synchronized cells were released by the addition of 10% NuSerum (control culture) or 10% NuSerum plus 10 μM DENSPM. The cells were then grown continuously in the presence of serum (control) or DENSPM for up to 96 hours. The untreated cells (control) re-established an asynchronous profile (i.e., progressed through the cell cycle) by 60 hours.
as §7

[8] = test system: MALME-3M human melanoma cells; assay: Polyamine pools in MALME-3M cells; format: cell-based; details: MALME-3M (wt-p53), 10 μM, Table 2 (24 hours treatment)
Protocol: as §1, §2

[9] = MALME-3M (wt-p53), 10 μM, Table 2 (24 hours treatment)

| SMILES | Enzyme Activities, ODC [1] [pmol/hr/mg protein] | Analog (intracellular accumulation) [2] [pmol/10^6 cells] | Polyamine Pools, Put [2] [pmol/10^6 cells] | Polyamine Pools, Spd [2] [pmol/10^6 cells] | Polyamine Pools, Spm [2] [pmol/10^6 cells] | SSAT activity ([3]; SK-MEL-28 cells, 24 hours) | Enzyme Activities, SSAT ([3]; SK-MEL-28 cells, 24 hours) [pmol/min/mg protein] | % Control Growth [4] [%] | cell growth and/or apoptosis response [4] | also measured |
| --- | --- | --- | --- | --- | --- | --- | --- | --- | --- | --- |
| CCNCCCCNCCCCNCCCCNCC [DE-444, N^1,N^14-diethylhomospermine] | 14 | 5950 | 20 | 120 | 1015 | 930 pmol/min/mg | 930 | 97 | cytostatic response | decrease in spermine pools [2]: 65% |
| NCCCNCCCCNCCCN [SPM, spermine, reference compound] | – | – | – | – | – | – | – | – | – | ODC activity [1, 9]: 175 pmol/hr/mg protein; % Control Growth ([5]; MALME-3M (wt-p53), 48 hours): 96%; % Growth Control ([5]; MALME-3M (wt-p53), Table 2 (24 hours treatment)): 97%; effect on growth or cell cycle compared to control cells ([5]; MALME-3M, 48 hours): no effect; SAMDC activity [6]: 20 pmol/hr/mg protein; % Total Cells at 48 hours, G1 [7]: 67%; % Total Cells at 48 hours, G2/M [7]: 10%; % Total Cells at 48 hours, S [7]: 23%; Polyamine Pools, Put [8]: <5 pmol/10^6 cells; Polyamine Pools, Spd [8]: 470 pmol/10^6 cells; Polyamine Pools, Spm [8]: 2430 pmol/10^6 cells; SSAT activity [3, 9]: 210 pmol/min/mg |
| CCNCCCCNCCCCNCCCNCC [DE-443, 3,7,12,17-tetraazanonadecane] | 32 | 5610 | 20 | 70 | 500 | 5,215 pmol/min/mg | 5215 | 77 | apoptotic response with a 48 hour delay | – |
| CCNCCCNCCCCNCCCNCC [DE-343, N^1,N^12-diethylspermine] | 23 | 5830 | 60 | 60 | 200 | 9,470 pmol/min/mg | 9470 | 59 | apoptotic response similar to that by DENSPM with a 24 hour delay | SSAT activity relative to DE-444 (times higher) ([3]; SK-MEL-28 cells): 10 times; SSAT activity relative to DENSPM (fold less) ([3]; SK-MEL-28 cells): about 3 fold |
